Several values for one entry are separate records, joined by “and”; a condition that tells them apart may be missing. Equal entries are not always repeated. Entries after “also recorded” stand apart in the source; their conditions may differ.
What was measured:
[1] = test system: marker proteins (osteopontin, ED-1, CD-3, ICAM-1, VCAM-1); assay: Assay C: immunohistochemistry of myocardial tissue (osteopontin, ED-1, CD-3, ICAM-1, VCAM-1); format: in vivo, Male Sprague-Dawley rats; settings: aldosterone + salt treated rats; eplerenone 100 mg/kg/day
Method: The procedure of Assay B was expanded upon in a further study. […] Myocardial tissue from animals in each treatment group was examined after 7, 14, or 30 days of treatment. […] Lesions were preceded by the expression and progressive upregulation of proinflammatory molecules.
Potassium chloride supplementation was added to the saline solution in order to prevent the potential hypokalemia associated with aldosterone excess.
At the time of the surgery, an Alzet 2002 osmotic minipump (Alza Corp., Palo Alto, Calif.) containing either vehicle (9% ethanol/87% propylene glycol/4% dH2O) or 1.0 mg/mL d-aldosterone (Sigma Chemical, St. Louis, Mo.) was inserted subcutaneously at the nape of the neck. Aldosterone was administered at a dose of 0.75 µg/hour. […] Animals were sacrificed from each group (n=8-13) after 7, 14, or 30 days of treatment.
The equatorial regions of the heart were routinely processed into paraffin with an automated tissue processor (Hypercenter XP, Shandon/Lipshaw Inc., Pittsburgh, Pa.) and embedded into fresh paraffin apical side down (Shandon Embedding Center, Shandon/Lipshaw Inc.). Five and 10 µm sections were cut from each block of tissue using a Leica RM2035 rotary microtome (Leica Inc., Houston, Tex.) and mounted on Superfrost/Plus microscope slides (Fisher Scientific, Pittsburgh, Pa.). […]

myocardial injury = assay: Assay C: histopathologic analysis, semi-quantitative myocardial injury score 0 to 4; format: in vivo, Male Sprague-Dawley rats; settings: for Myocardial injury / vascular inflammatory damage (histopathology): aldosterone + salt, 7, 14, 30 days, eplerenone 100 mg/kg/day; for Myocardia 1 Necrosis (0-4): eplerenone dose 100 mg/kg/day
Method: The procedure of Assay B was expanded upon in a further study. […] Myocardial tissue from animals in each treatment group was examined after 7, 14, or 30 days of treatment. […] Lesions were preceded by the expression and progressive upregulation of proinflammatory molecules. […] Prior to surgery the animals were individually weighed and placed in one of the following groups: […] Potassium chloride supplementation was added to the saline solution in order to prevent the potential hypokalemia associated with aldosterone excess. […] Louis, Mo.) was inserted subcutaneously at the nape of the neck. Aldosterone was administered at a dose of 0.75 µg/hour. […] Animals were sacrificed from each group (n=8-13) after 7, 14, or 30 days of treatment. Following exsanguination, hearts and kidneys were isolated, removed, rinsed in cold phosphate-buffered saline, and blotted dry. […] The equatorial regions of the heart were routinely processed into paraffin with an automated tissue processor (Hypercenter XP, Shandon/Lipshaw Inc., Pittsburgh, Pa.) and embedded into fresh paraffin apical side down (Shandon Embedding Center, Shandon/Lipshaw Inc.). Five and 10 µm sections were cut from each block of tissue using a Leica RM2035 rotary microtome (Leica Inc., Houston, Tex.) and mounted on Superfrost/Plus microscope slides (Fisher Scientific, Pittsburgh, Pa.). Ten […]m sections were stained with the collagen specific stain, Picrosirius Red F3BA (Saturated Picric Acid (Sigma Chemical, St. […] Waterbury, Conn.) (6). Mounted tissues were hydrated with water. […] Slides were coverslipped with #1 cover glass using Permount Histological Mounting Media (Fisher Scientific). Two slides mounted with 5 µm sections were cut for each animal. One slide was processed for H&E staining and one for Periodic Acid Schiff (PAS) staining. The H&E and PAS were used for pathological scoring of the hearts. Semi-quantification of myocardial injury was performed as described previously with minor modifications (7). Briefly, a scale from 0 to 4 was used to score the level of myocardial injury. A score of 0 represented no damage. […] Myocardial necrosis was defined as the presence of necrotic changes in cardiomyocytes such as nuclear pyknosis or karyolysis, non-contracting marginal wavy fibers and hypereosinophilia of the cytoplasm, or clear evidence of destruction of the cardiomyocyte membrane.

[2] = 7-day protocol, score 0-4, individual rats and group Mean
[3] = group mean, data used for Table 15 (14 days of treatment)
[4] = group mean, data used for Table 16 (30 days of treatment)
[5] = mean ± SEM after 7 days of treatment
[6] = mean ± SEM after 14 days of treatment
[7] = mean ± SEM after 30 days of treatment

| SMILES | Staining in myocardial tissue for marker proteins (immunohistochemistry) [1] | Myocardial Necrosis (0-4) (myocardial injury; [2]) | Myocardial injury / vascular inflammatory damage (histopathology) (myocardial injury) | Myocardial Necrosis (0-4) (myocardial injury; [3]) | Myocardial Necrosis (0-4) (myocardial injury; [4]) | Myocardial Necrosis (0-4) (myocardial injury; individual rats, data used for Table 15 (14 days of treatment), incl. rat marked * excluded from statistics, listed as Aldosterone + salt) | Myocardial Necrosis (0-4) (myocardial injury; individual rats, data used for Table 16 (30 days of treatment), incl. rat marked * excluded from statistics, listed as Aldosterone + salt) | Myocardia 1 Necrosis (0-4) (myocardial injury; [5]) | Myocardia 1 Necrosis (0-4) (myocardial injury; [6]) | Myocardia 1 Necrosis (0-4) (myocardial injury; [7]) | Myocardial Necrosis (0-4) (myocardial injury; individual rats, data used for Table 15 (14 days of treatment), incl. rat marked * excluded from statistics, listed as Eplerenone + aldosterone + salt) | Myocardial Necrosis (0-4) (myocardial injury; individual rats, data used for Table 16 (30 days of treatment), incl. rat marked * excluded from statistics) |
| --- | --- | --- | --- | --- | --- | --- | --- | --- | --- | --- | --- | --- |
| C[C@]12CCC(=O)C=C1CC[C@@H]1[C@@H]2[C@@H](O)C[C@]2(C=O)[C@@H](C(=O)CO)CC[C@@H]12 [Aldosterone] | Significant expression of osteopontin | 0.0 | focal arterial and myocardial alterations were observed starting at 14 days; also recorded: induced vascular inflammation and cardiac tissue damage | 0.8 | 2.0 | 0.0 (7×) and 1.0 (3×) and 3.0 (3×) | 1.5 and 2.5 and 3.0 (2×) and 2.0 (2×) and 0.5 and 0.3 and 3.5 | 0.0 ± 0.0 | 0.8 ± 0.3 | 2.0 ± 0.4 | – | – |
| COC(=O)[C@@H]1CC2=CC(=O)CC[C@]2(C)[C@@]23O[C@@H]2C[C@@]2(C)[C@@H](CC[C@@]24CCC(=O)O4)[C@H]13 [Eplerenone] | markedly blunted | 0.0 | markedly attenuated | 0.5 | 0.0 | – | – | 0.0 ± 0.0 | 0.5 ± 0.2 | 0.0 ± 0.0 | 1.0 (3×) and 0.0 (7×) and 2.0 | 0.0 |

From patent US6716829B2, “Aldosterone antagonist and cyclooxygenase-2 inhibitor combination therapy to prevent or treat inflammation-related cardiovascular disorders” (Pharmacia Corporation, priority 2000, dated 2004)
